Assay results: patent publication US5798335A, “Method for the treatment or prevention of eczema/dermatitis” (priority 1993, dated 1998)

What was measured:
inflammatory lesions = settings: three lesions severity 1 on back; dermal spray morning and afternoon; after three days
Protocol: The usefulness of the method of the present invention was assessed in experiments using dogs.

skin conditions = system: skin conditions
Protocol: Following these initial trials a further trial was conducted […].
The trial was a double-blinded, placebo controlled trial in which the compound was compared with placebo treatment. […] The study was conducted as follows:
1. Assessment by a veterinarian.
2. Treatment Period A: 14 days.
3. Assessment by a veterinarian.
4. No treatment for seven days as a wash-out period.
5. Assessment by a veterinarian.
6. Treatment Period B: 14 days.
7. Assessment by a veterinarian.
8. No treatment for seven days.
9. Assessment by a veterinarian.

D-Ala-Ser-Thr-Thr-Thr-Asn-Tyr-Thr-NH2 [Peptide T]
Treatment results (lesions) (inflammatory lesions): Lesions had disappeared | cases of mild improvement in one parameter (usually erythema) (skin conditions; 14 day treatment period, crossover with placebo): five | dogs with significant improvement (skin conditions; 14 day treatment period, these dogs had atopic dermatitis): two | dogs with no change (skin conditions; 14 day treatment periods, crossover with placebo): ten
